Experimental data reported in publication PMC9841524, “Structure-Based Rational Design of Small α-Helical Peptides with Broad-Spectrum Activity against Multidrug-Resistant Pathogens” (Journal of Medicinal Chemistry, 2022).
Where two headings read alike, the source gives them in different places. Where no end group is shown, it is not given here.

What was measured:
[1] = tested on: S. aureus (ATCC 29213); test: MIC, standard microtiter dilution (CLSI); format: cell-based; conditions: for MIC, S. aureus (ATCC 29213): broth microdilution (CLSI), CAMHB, 37 °C, 24 h
Description: (§1) Description of the characteristics and growth conditions of various bacterial strains used in the study are provided in the Supporting Information (Table S3). Antibacterial susceptibility testing was carried out using a standard microtiter dilution method recommended by the clinical and laboratory standard institute (CLSI) and measured as a minimum inhibitory concentration (MIC), the lowest peptide concentration that inhibited bacterial growth. Briefly, the overnight grown cultures in the recommended broth for each bacterial strain were diluted in cation-adjusted Mueller Hinton Broth (CAMHB) to give an inoculum of 10^6 colony-forming units (CFU)/mL. A 2-fold serially diluted test peptide solution (100 μL) was added to the microtiter plates. After adding bacterial suspension (100 μL), the plates were incubated at 37 °C for 24 h, and the MICs were determined. The same protocol was used to determine the MICs in the presence of salts and serum except using the media supplemented with various cationic salts (150 mM NaCl, 4.5 mM KCl, 6 mM NH4Cl, 1 mM MgCl2, and 2 mM CaCl2) or 25% FBS. The data was acquired from three independent assays performed in triplicate.
(§2) The bacterial strains employed in this study were obtained from the American Type Culture Collection (ATCC). Each strain was propagated as recommended by the ATCC, and each strain was stored as a frozen glycerol stock at -80°C. A bacterial colony was grown on the appropriate agar as indicated in Table S1 and was used to inoculate the appropriate broth. The culture was incubated at the appropriate conditions, as mentioned in Table S1. Following the incubation, the culture was diluted to an optical density 625 nm (OD625) of 0.1 in cation adjusted Mueller Hinton Broth (CAMHB), which is equivalent to 1 × 10^8 CFU/mL. The culture was further diluted to 1 × 10^6 CFU/mL, which was used to conduct the MIC determination assay. For the S. pneumoniae strains, CAMHB + 2.5% lysed horse blood was required for the assay. The strains with their […]
(§3) Table S3. Description of the characteristics and growth conditions of various bacterial strains

[2] = tested on: E. coli (ATCC 25922); conditions: broth microdilution (CLSI), CAMHB, 37 °C, 24 h
Description: as §1, §2, §3

[3] = tested on: MRSA (ATCC BAA-1556); conditions: broth microdilution (CLSI), CAMHB, 37 °C, 24 h
Description: as §1, §2, §3

[4] = tested on: P. aeruginosa (ATCC 27883); test: MIC, standard microtiter dilution (CLSI); format: cell-based, Pseudomonas aeruginosa; conditions: broth microdilution (CLSI), CAMHB, 37 °C, 24 h
Description: as §1, §2, §3

[5] = tested on: K. pneumoniae (ATCCBAA-1705); test: MIC, standard microtiter dilution (CLSI); format: cell-based, Klebsiella pneumoniae; conditions: broth microdilution (CLSI), CAMHB, 37 °C, 24 h
Description: as §1, §2, §3

[6] = tested on: human red blood cells (hRBCs); test: Hemolytic assay; format: cell-based; conditions: 2 h, 37 °C
Description: The hemolytic activity of all peptides (1a–8d) was determined using hRBC. The assay was conducted by adding 75 μL of 2-fold serially diluted peptides to 75 μL of hRBC suspension (4% in PBS). The plates were incubated for 2 h at 37 °C without agitation. In order to determine the hemolysis at each tested concentration of peptides, the plate was centrifuged, and 100 μL of the supernatant was transferred to another 96-well plate to determine hemoglobin release spectrophotometrically at 567 nm. Percent hemolysis was calculated by the following formula [drawing 1] where A represents the absorbance of the peptide sample at 567 nm and A0 and At represent zero percent and 100% hemolysis determined in phosphate buffer saline and 1% Triton X-100, respectively.

[7] = 10^6 CFU/mL, highest MIC of three independent experiments in triplicate
[8] = hRBC suspension 4% in PBS, hemoglobin release at 567 nm, 1% Triton X-100 = 100%
[9] = value in parentheses (μM), hRBC 4% in PBS, 567 nm

| Substance | MIC, S. aureus (ATCC 29213) [1, 7] | MIC, S. aureus (ATCC 29213) ([1]; value in parentheses (μM)) | MIC, E. coli (ATCC 25922) [2, 7] | MIC, E. coli (ATCC 25922) ([2]; value in parentheses (μM)) | MIC, MRSA (ATCC BAA-1556) [3, 7] | MIC, MRSA (ATCC BAA-1556) ([3]; value in parentheses (μM)) | MIC, P. aeruginosa (ATCC 27883) [4, 7] | MIC, P. aeruginosa (ATCC 27883) ([4]; value in parentheses (μM)) | MIC, K. pneumoniae (ATCCBAA-1705) [5, 7] | MIC, K. pneumoniae (ATCCBAA-1705) ([5]; value in parentheses (μM)) | HC50 (concentration at which 50% hemolysis was observed) [6, 8] | HC50 (concentration at which 50% hemolysis was observed) [6, 9] | MIC against S. aureus [1] |
| --- | --- | --- | --- | --- | --- | --- | --- | --- | --- | --- | --- | --- | --- |
| Ac-RWIRRWIRWWR-NH2 [5e] | 50 µg/mL | 27.61 µM | 100 µg/mL | 55.21 µM | 50 µg/mL | 27.61 µM | 50 µg/mL | 27.61 µM | 100 µg/mL | 55.21 µM | 60 µg/mL | 33.13 µM |  |
| RAWRRWWRAA-NH2 [4b] | > 100 µg/mL | > 70.74 µM | > 100 µg/mL | > 70.74 µM | > 100 µg/mL | > 70.74 µM | > 100 µg/mL | > 70.74 µM | > 100 µg/mL | > 70.74 µM | > 500 µg/mL | > 353.69 µM |  |
| H-AAWRRWWRRA-NH2 [4h] | > 100 µg/mL | > 70.74 µM | > 100 µg/mL | > 70.74 µM | > 100 µg/mL | > 70.74 µM | > 100 µg/mL | > 70.74 µM | > 100 µg/mL | > 70.74 µM | > 500 µg/mL | > 353.69 µM |  |
| RWRRWWR-NH2 [1a] | 100 µg/mL | 83.30 µM | > 100 µg/mL | > 83.30 µM | 100 µg/mL | 83.30 µM | > 100 µg/mL | > 83.30 µM | > 100 µg/mL | > 83.30 µM | > 500 µg/mL | > 416.52 µM |  |
| RWARRAWRAW-NH2 [4e] | > 100 µg/mL | > 70.74 µM | > 100 µg/mL | > 70.74 µM | > 100 µg/mL | > 70.74 µM | > 100 µg/mL | > 70.74 µM | > 100 µg/mL | > 70.74 µM | > 500 µg/mL | > 353.69 µM |  |
| H-RAWRRWARAW-NH2 [4d] | > 100 µg/mL | > 70.74 µM | > 100 µg/mL | > 70.74 µM | > 100 µg/mL | > 70.74 µM | > 100 µg/mL | > 70.74 µM | > 100 µg/mL | > 70.74 µM | > 500 µg/mL | > 353.69 µM |  |
| RWIRRWIRWWR-NH2 [5c] | 50 µg/mL | 28.26 µM | 100 µg/mL | 56.52 µM | 50 µg/mL | 28.26 µM | 50 µg/mL | 28.26 µM | 100 µg/mL | 56.52 µM | > 500 µg/mL | > 282.62 µM |  |
| RWARRWWRA-NH2 [3c] | > 100 µg/mL | > 74.48 µM | > 100 µg/mL | > 74.48 µM | > 100 µg/mL | > 74.48 µM | > 100 µg/mL | > 74.48 µM | > 100 µg/mL | > 74.48 µM | > 500 µg/mL | > 372.42 µM |  |
| RWARRWARWWR-NH2 [5b] | 50 µg/mL | 29.67 µM | 100 µg/mL | 59.35 µM | 100 µg/mL | 59.35 µM | 100 µg/mL | 59.35 µM | > 100 µg/mL | > 59.35 µM | > 500 µg/mL | > 296.74 µM | 50 µg/mL |
| H-RWWRRWR-NH2 [1e] | 100 µg/mL | 83.30 µM | > 100 µg/mL | > 83.30 µM | 100 µg/mL | 83.30 µM | > 100 µg/mL | > 83.30 µM | > 100 µg/mL | > 83.30 µM | > 500 µg/mL | > 416.52 µM |  |
| RRWWRRW-NH2 [1b] | 50 µg/mL | 41.65 µM | > 100 µg/mL | > 83.30 µM | 100 µg/mL | 83.30 µM | > 100 µg/mL | > 83.30 µM | > 100 µg/mL | > 83.30 µM | > 500 µg/mL | > 416.52 µM |  |
| ARRWWRRW-NH2 [2e] | 100 µg/mL | 78.65 µM | > 100 µg/mL | > 78.65 µM | 100 µg/mL | > 78.65 µM | > 100 µg/mL | > 78.65 µM | > 100 µg/mL | > 78.65 µM | > 500 µg/mL | > 393.23 µM |  |
| RAWRRWWRA-NH2 [3b] | > 100 µg/mL | > 74.48 µM | > 100 µg/mL | > 74.48 µM | > 100 µg/mL | > 74.48 µM | > 100 µg/mL | > 74.48 µM | > 100 µg/mL | > 74.48 µM | > 500 µg/mL | > 372.42 µM |  |
